In patent publication US11666558B2, “Methods of treating intraocular pressure with activators of Tie-2” (EyePoint Pharmaceuticals, Inc., priority 2015, dated 2023):
“And” between values parts separate entries of the source, which are not always exact repeats. Equal entries are not always repeated. Where two headings read alike, the source gives them in different places.

Assay: Ocular tissue concentrations (aqueous humor, vitreous humor, iris, retina, choroid, cornea) after topical ocular, subcutaneous and intravitreal administration
Format: in vivo, New Zealand White rabbits
Protocol: To measure the concentration of Compound 1 in plasma and ocular tissues following topical ocular, subcutaneous, and intravitreal administration, New Zealand White rabbits were administered Compound 1, and plasma and ocular samples were collected at pre-determined time points. Compound 1 formulations were prepared fresh on each day of dosing.
Ocular tissue samples from both eyes of each animal were collected and weights were recorded. Plasma and ocular tissue sample concentrations of Compound 1 were determined by LC-MS/MS.
New Zealand White rabbits weighing 2.5 to 3.5 kg were used on this study. Rabbits were housed one per cage. Animals were not fasted and only healthy animals with no ocular illness were used. Two rabbits per group were sacrificed at each of four ocular tissue sampling time points for a total of eight rabbits per group.
Animals were anesthetized for ocular (topical) and intravitreal dosing following the 12IA7 IACUC protocol. Each rabbit received a bolus dose of test formulation either via topical ocular administration 3 times daily on Days 1 and 2 (at 0, 6, and 12 hours), and once on Day 3 (at 0 hours) into both eyes; via intravitreal administration into both eyes once on Day 1 (at 0 hours); or via subcutaneous administration 2 times daily on Days 1 and 2 (at 0 and 8 hours) and once daily on Day 3 (at 0 hours). Doses were given within an approximately 1 hour window each day where applicable.
On Day 1, for intravitreal administration, or on Day 3, for topical ocular and subcutaneous administration, at the appropriate ocular tissue collection time points, animals were euthanized and both eyes were enucleated immediately. Following enucleation, each eye was rinsed with phosphate-buffered saline. Ocular tissue samples from both eyes of each animal were collected at predetermined time points and weights were recorded. All the samples were frozen immediately on dry ice, and stored at −60° C. to −80° C. pending bioanalysis.
An LC-MS/MS method was developed for the determination of Compound 1 in rabbit aqueous tissues (plasma, aqueous and vitreous humor) and solid ocular tissue samples. A pre-study standard curve was analyzed to determine the specificity, range, and lower limit of quantitation of the method. Plasma and tissue homogenate study samples were extracted and analyzed. All the samples were treated identically to the standards.
One eight-point standard curve was used in each analytical batch. To be accepted, each batch must have had at least five of eight standards with accuracy within ±20% of nominal, except at the lower limit of quantification (LLOQ), where ±25% was acceptable.
Concentration versus time data is plotted in FIGS. 3-16. All data are expressed as ng/g of the free drug. Samples that were below the limit of quantitation (0.2 ng/mL) were not used in the calculation of averages.

[1] = Group 3 subcutaneous 5 mg/kg, 0.5 hr
[2] = Group 3 subcutaneous 5 mg/kg, 1.0 hr
[3] = Group 3 subcutaneous 5 mg/kg, 2.0 hr
[4] = Group 3 subcutaneous 5 mg/kg, 4.0 hr
[5] = Group 5 intravitreal 2.5 mg per eye, 6.0 hr
[6] = Group 5 intravitreal 2.5 mg per eye, 24 hr
[7] = Group 5 intravitreal 2.5 mg per eye, 48 hr
[8] = Group 5 intravitreal 2.5 mg per eye, 72 hr

Average Peak Concentration, Vitreous Humor (Group 3 subcutaneous 5 mg/kg/dose, suspension): 0.40 ng/g | concentration at 6 hr (New Zealand White, rabbit, aqueous humor, other: intravitreal, 2.5 mg per eye, Group 5 intravitreal 2.5 mg per eye, 6.0 hr, read-out: aqueous humor Average Conc.): 26400 ng/g | concentration at 24 hr (New Zealand White, rabbit, aqueous humor, other: intravitreal, 2.5 mg per eye, Group 5 intravitreal 2.5 mg per eye, 24 hr, read-out: aqueous humor Average Conc.): 4270 ng/g | concentration at 48 hr (New Zealand White, rabbit, aqueous humor, other: intravitreal, 2.5 mg per eye, Group 5 intravitreal 2.5 mg per eye, 48 hr, read-out: aqueous humor Average Conc.): 915 ng/g | concentration at 72 hr (New Zealand White, rabbit, aqueous humor, other: intravitreal, 2.5 mg per eye, Group 5 intravitreal 2.5 mg per eye, 72 hr, read-out: aqueous humor Average Conc.): 120 ng/g | concentration at 0.5 h (New Zealand White, rabbit, aqueous humor, subcutaneous, 5 mg/kg, Group 3 subcutaneous 5 mg/kg, 0.5 hr, read-out: aqueous humor Average Conc.): 1.21 ng/g | concentration at 1 h (New Zealand White, rabbit, aqueous humor, subcutaneous, 5 mg/kg, Group 3 subcutaneous 5 mg/kg, 1.0 hr, read-out: aqueous humor Average Conc.): 0.41 ng/g | concentration at 2 hr (New Zealand White, rabbit, aqueous humor, subcutaneous, 5 mg/kg, Group 3 subcutaneous 5 mg/kg, 2.0 hr, read-out: aqueous humor Average Conc.): 0.66 ng/g | concentration at 2 hr (New Zealand White, rabbit, aqueous humor, subcutaneous, 5 mg/kg, Group 3 subcutaneous 5 mg/kg, 2.0 hr, read-out: aqueous humor Conc., individual eyes (OD, OS)): 0.601 ng/mL | concentration at 4 hr (New Zealand White, rabbit, aqueous humor, subcutaneous, 5 mg/kg, Group 3 subcutaneous 5 mg/kg, 4.0 hr, read-out: aqueous humor Average Conc.): 0.51 ng/g | concentration at 4 hr (New Zealand White, rabbit, aqueous humor, subcutaneous, 5 mg/kg, Group 3 subcutaneous 5 mg/kg, 4.0 hr, read-out: aqueous humor Conc., individual eyes (OD, OS)): 0.209 ng/mL | concentration at 6 h (New Zealand White, rabbit, vitreous humor, other: intravitreal, 2.5 mg per eye, Group 5 intravitreal 2.5 mg per eye, 6.0 hr, read-out: vitreous humor Average Conc.): 480000 ng/g | concentration at 24 h (New Zealand White, rabbit, vitreous humor, other: intravitreal, 2.5 mg per eye, Group 5 intravitreal 2.5 mg per eye, 24 hr, read-out: vitreous humor Average Conc.): 409000 ng/g | concentration at 24 h (New Zealand White, rabbit, vitreous humor, other: intravitreal, 2.5 mg per eye, Group 5 intravitreal 2.5 mg per eye, 24 hr, read-out: vitreous humor Conc., individual eyes (OD, OS)): 296000 ng/mL | concentration at 48 h (New Zealand White, rabbit, vitreous humor, other: intravitreal, 2.5 mg per eye, Group 5 intravitreal 2.5 mg per eye, 48 hr, read-out: vitreous humor Average Conc.): 97800 ng/g | concentration at 72 h (New Zealand White, rabbit, vitreous humor, other: intravitreal, 2.5 mg per eye, Group 5 intravitreal 2.5 mg per eye, 72 hr, read-out: vitreous humor Average Conc.): 65400 ng/g | concentration at 0.5 hr (New Zealand White, rabbit, vitreous humor, subcutaneous, 5 mg/kg, Group 3 subcutaneous 5 mg/kg, 0.5 hr, read-out: vitreous humor Average Conc.): 0.4 ng/g | concentration at 0.5 hr (New Zealand White, rabbit, vitreous humor, subcutaneous, 5 mg/kg, Group 3 subcutaneous 5 mg/kg, 0.5 hr, read-out: vitreous humor Conc., individual eyes (OD, OS)): 0.227 ng/mL | concentration at 1 hr (New Zealand White, rabbit, vitreous humor, subcutaneous, 5 mg/kg, Group 3 subcutaneous 5 mg/kg, 1.0 hr, read-out: vitreous humor Average Conc.): 0.41 ng/g | concentration at 1 hr (New Zealand White, rabbit, vitreous humor, subcutaneous, 5 mg/kg, Group 3 subcutaneous 5 mg/kg, 1.0 hr, read-out: vitreous humor Conc., individual eyes (OD, OS)): 0.407 ng/mL | concentration at 4 hr (New Zealand White, rabbit, vitreous humor, subcutaneous, 5 mg/kg, Group 3 subcutaneous 5 mg/kg, 4.0 hr, read-out: vitreous humor Average Conc.): 0.41 ng/g | concentration at 4 hr (New Zealand White, rabbit, vitreous humor, subcutaneous, 5 mg/kg, Group 3 subcutaneous 5 mg/kg, 4.0 hr, read-out: vitreous humor Conc., individual eyes (OD, OS)): 0.408 ng/mL
SMILES: COC(=O)N[C@@H](Cc1ccccc1)C(=O)N[C@@H](Cc1ccc(NS(=O)(=O)O)cc1)c1csc(-c2cccs2)n1 [Compound 1 free acid]
aqueous humor Conc., individual eyes (OD, OS) [1]: BLOQ (Below the limit of quantitation (0.2 ng/mL)) (2×) and 0.519 ng/mL and 1.90 ng/mL | vitreous humor Conc., individual eyes (OD, OS) [1]: BLOQ (Below the limit of quantitation (0.2 ng/mL)) and 0.261 ng/mL | aqueous humor Conc., individual eyes (OD, OS) [2]: 0.485 ng/mL and 0.684 ng/mL and 0.229 ng/mL and 0.257 ng/mL | vitreous humor Conc., individual eyes (OD, OS) [2]: BLOQ (Below the limit of quantitation (0.2 ng/mL)) | aqueous humor Conc., individual eyes (OD, OS) [3]: BLOQ (Below the limit of quantitation (0.2 ng/mL)) and 0.594 ng/mL | vitreous humor Conc., individual eyes (OD, OS) [3]: BLOQ (Below the limit of quantitation (0.2 ng/mL)) | aqueous humor Conc., individual eyes (OD, OS) [4]: 0.229 ng/mL and BLOQ (Below the limit of quantitation (0.2 ng/mL)) | vitreous humor Conc., individual eyes (OD, OS) [4]: BLOQ (Below the limit of quantitation (0.2 ng/mL)) | aqueous humor Conc., individual eyes (OD, OS) [5]: 34200 ng/mL and 15700 ng/mL and 23400 ng/mL and 32300 ng/mL | vitreous humor Conc., individual eyes (OD, OS) [5]: 592000 ng/mL and 625000 ng/mL and 432000 ng/mL and 270000 ng/mL | aqueous humor Conc., individual eyes (OD, OS) [6]: 3890 ng/mL and 6480 ng/mL and 5540 ng/mL and 1170 ng/mL | vitreous humor Conc., individual eyes (OD, OS) [6]: 528000 ng/mL and 491000 ng/mL and 320000 ng/mL | aqueous humor Conc., individual eyes (OD, OS) [7]: 476 ng/mL and 632 ng/mL and 1220 ng/mL and 1330 ng/mL | vitreous humor Conc., individual eyes (OD, OS) [7]: 75900 ng/mL and 148000 ng/mL and 68300 ng/mL and 99000 ng/mL | aqueous humor Conc., individual eyes (OD, OS) [8]: 145 ng/mL and 172 ng/mL and 94.1 ng/mL and 70.2 ng/mL | vitreous humor Conc., individual eyes (OD, OS) [8]: 96500 ng/mL and 101000 ng/mL and 16200 ng/mL
